Data on 3 molecules can be found in paper PMC12802263 (mBio, 2025).

One assay has as its target DncV (Vibrio cholerae, UniProt Q9KVG7). The assay is described as follows: biochemical.
A further assay concerns the target CapV (Vibrio cholerae, UniProt Q9KVG8). The following applies: 50 mM Na3PO4, pH 7.4, 300 mM NaCl, 10% glycerol, 37 °C.

Sequence of DncV (Q9KVG7 whole entry, looked up): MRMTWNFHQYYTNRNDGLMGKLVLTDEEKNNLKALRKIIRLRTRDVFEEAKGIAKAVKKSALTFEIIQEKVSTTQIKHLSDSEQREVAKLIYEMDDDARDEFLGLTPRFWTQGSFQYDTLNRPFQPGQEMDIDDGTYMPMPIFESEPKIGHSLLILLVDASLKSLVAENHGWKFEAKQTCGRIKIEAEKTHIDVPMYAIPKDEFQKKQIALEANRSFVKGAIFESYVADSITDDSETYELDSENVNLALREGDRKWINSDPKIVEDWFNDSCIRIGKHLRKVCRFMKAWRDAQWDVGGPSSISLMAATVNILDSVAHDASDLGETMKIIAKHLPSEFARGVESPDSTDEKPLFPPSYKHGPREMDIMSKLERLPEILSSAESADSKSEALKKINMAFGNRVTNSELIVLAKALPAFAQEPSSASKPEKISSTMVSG
Sequence of CapV (Q9KVG8 whole entry, looked up): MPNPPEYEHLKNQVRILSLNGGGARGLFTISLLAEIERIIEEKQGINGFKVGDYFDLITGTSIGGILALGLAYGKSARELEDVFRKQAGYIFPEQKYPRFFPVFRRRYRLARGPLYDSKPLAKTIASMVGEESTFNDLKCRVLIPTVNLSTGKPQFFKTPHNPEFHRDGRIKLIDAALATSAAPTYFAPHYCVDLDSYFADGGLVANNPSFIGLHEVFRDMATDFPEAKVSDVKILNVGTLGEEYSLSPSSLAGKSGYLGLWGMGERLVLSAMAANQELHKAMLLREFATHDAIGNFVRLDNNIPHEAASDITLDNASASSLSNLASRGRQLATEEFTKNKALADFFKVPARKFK

The molecule `Nc1nc2c(ncn2[C@@H]2O[C@H](COP(=O)(O)OP(=O)(O)OP(=O)(O)O)[C@@H](O)[C@H]2O)c(=O)[nH]1` [GTP] gave a dissociation constant Kd at DncV of 2.63 µM.

`CCCC(=O)Oc1ccc2nc3ccc(=O)cc-3oc2c1` [Resorufin butyrate]: at CapV, the “fluorogenic phospholipase assay (ex 550 / em 591 nm)” value was “phospholipase activity of the proteins CapV and CapV^S62A was detected using the fluorescent substrate Resorufin”. Take `Nc1nc2c(c(=O)[nH]1)N[C@@H](CNc1ccc(C(=O)N[C@@H](CCC(=O)O)C(=O)O)cc1)CN2` [THF, tetrahydrofolate]: the Kd on DncV worked out at 3.59 µM.

The Kd is the equilibrium constant for the complex coming apart. Low readings indicate tighter binding, high ones weaker binding.
